Results taken from US20080058280A1, “Treatment of Lymphoma Using 10-Propargyl-10-Deazaaminopterin and Gemcitabine” (SLOAN-KETTERING INSTITUTE FOR CANCER RESEARCH, priority 2004, published 2008).

Legend:
[1] = system: subcutaneous tumors of SKI; test: Preliminary combination xenograft experiment; type: in vivo, irradiated NOD-SCID mice; settings: for tumor response (in words): MTX 40 mg/kg (MTD), Ara-C 300 mg/kg (MTD), or combination at one-half the MTD
Method: Given the experience that SKI-DLCL-1 is the most PDX resistant line in the panel, it was selected for these in vivo synergy experiments. […] All animals were treated with the maximum tolerated dose (MTD) of each drug, save the combination studies.

SKI-DLBCL-1 xenograft = test: Second combination xenograft experiment (FIG. 5); type: in vivo, SCID beige mice; settings: PDX and Gem at one-quarter of the MTD (15 mg/kg); MTX (60 mg/kg) alone, Ara-C (300 mg/kg) alone or both
Method: The same type of test was repeated to assess the in vivo efficacy of using combination therapies. […] Schedule dependent treatment was also determined by pretreating animals with PDX or MTX followed 24 hours later with Gem or Ara-C, respectively. One cohort of animals was treated with Gem followed by PDX. In all cases, the control animals received intraperitoneal injections of normal saline.
Tumor bearing mice were assessed for weight loss and tumor volume at least twice weekly for the duration of the experiment. The data are expressed as the average tumor volume (mm3) per group as a function of time. Tumors were assessed by measuring the two largest perpendicular axes (l=length, w=width) with standard calipers. Tumor volume was calculated using the formula 4/3 πr^3 where r=(l+w)/4. Animals were sacrificed when one dimensional tumor diameter exceeded 2.0 cm, or after loss of more than 10% of their body weight in accordance with institutional guidelines. Animals were housed in standard shoe box cages in temperature and humidity constant rooms on a 12 hour light and dark cycle. Food and water were supplied ad libitum. Animals were maintained in core animal facilities under an institute approved animal protocol.

SKI-DLBCL cells = test: Cell cycle analysis (propidium iodide binding); type: cell-based, human; settings: result in words
Method: All drugs were assayed at equimolar concentrations (i.e. 1 nM). The incubation conditions were modeled after the in vitro cytotoxicity experiments. Single agent drugs or combinations of all drugs studied without schedule considerations were incubated for 72 hours, while drugs that were studied in some schedule were introduced in a 24+48 incubation scheme (i.e. drug B added 24 hours following drug A, then incubated for an additional 48 hours for a total incubation time of 72 hours). […] In addition to monitoring apoptosis, cell cycle kinetic analyses were also performed on all treated cells based the propidium iodide binding.

[2] = system: Hs445 (Hodgkin's disease); test: Growth inhibition in vitro, 5 day exposure (XTT or Alamar blue); type: cell-based; settings: Homo sapiens, Hs 445, 120 h, 5 day drug exposure
Method: (§1) A PDX preparation prepared in accordance with Example 1 and an MTX preparation were tested for cytotoxicity against a panel of five human lymphoma cell lines. Experiments were performed as described previously. (Sirotnak et al., Cancer Chemother. Pharmacol. 12: 18-25 (1984). In brief, 2.5 to 5×10^3 cells were plated per well in 96-well flat bottom plates. Drug was added in a 0.9% NaCl solution (pH 7.0) over a range of concentrations, and cells were continuously exposed to drug for 5 days. Colorimetric dye (XTT or Alamar blue) was added for an addition period of time (XTT dye, 6 hours, Alamar blue, 24 hours). Each plate was then read on an automated plate reader at 590 nm. The percentage of inhibition was calculated as growth of cells exposed to drug divided by growth of controls (cells incubated with media only). IC50 values were determined as the drug concentrations at which cell growth was inhibited 50% as compared to controls. Experiments were repeated as lest three times. Experiments were also conducted with continuous drug exposures lasting for 3 and 4 days with results similar to the 5 day results.

Raji (Burkitt's) = test: as above; type: cell-based; settings: Homo sapiens, 120 h, 5 day drug exposure
Method: as §1

[3] = system: RL (Transformed follicular); test: as above; type: cell-based; settings: Homo sapiens, 120 h, 5 day drug exposure
Method: as §1

[4] = system: HT (Diffuse large B cell); test: as above; type: cell-based; settings: Homo sapiens, 120 h, 5 day drug exposure
Method: as §1

[5] = system: human RL (transformed follicular) non-Hodgkin's lymphoma xenografts; test: Subcutaneous lymphoma xenograft treatment; type: in vivo
Excerpt: (§2) In order to study the effects of PDX on lymphoma growth in vivo, subcutaneous transplantation models in NOD/SCID mice were generated using three established human lymphoma cell line representative of aggressive transformed FL (RL) and de novo extranodal DLBCL (HT; SKI-DLCL-1) histologies. Six to eight week old non-obsese diabetic severe combined immunodeficient (NOD/SCID) mice (Jackson Laboratories, Bar Harbor, Me.) were sub-lethally irradiated with […] from a gamma source and inoculated with 10×10^6 lymphoma cells via a subcutaneous route. When tumor volumes approached 100 mm^3, mice were divided into three groups, averaging 3-8 mice per group. Mice were treated with normal saline or the maximum tolerated dose (MTD) of MTX (40 mg/kg) or PDX (60 mg/kg) via an intraperitoneal route twice weekly for two weeks (four total doses). […] (Sirotnak, et al., Cancer Chemother. Pharmacol. 12: 26-30 (1984); Sirotnak et al., Cancer Chemother. Pharmacol. 42: 313-318 (1998).
(§3) Engraftment rates in this experiment ranged from 80 to 90%. Palpable tumors formed under the skin approximately 7-10 days after inoculation and were readily measurable with calipers. Mice with subcutaneous lymphoma growths survived an average of 40-50 days after inoculation.

[6] = system: human HT (diffuse large B cell) non-Hodgkin's lymphoma xenografts; test: Subcutaneous lymphoma xenograft treatment; type: in vivo
Excerpt: as §2, §3

[7] = system: human SKI-DLCL-1 (de novo diffuse large B cell) non-Hodgkin's lymphoma xenografts; test: Subcutaneous lymphoma xenograft treatment; type: in vivo; settings: SKI-DLCL-1 xenografts
Excerpt: as §2, §3

[8] = system: SKI-DLCL-1 (Diffuse large B Cell); test: Growth inhibition in vitro, 5 day exposure (XTT or Alamar blue); type: cell-based; settings: Homo sapiens, 120 h, 5 day drug exposure
Method: A PDX preparation prepared in accordance with Example 1 and an MTX preparation were tested for cytotoxicity against a panel of five human lymphoma cell lines. Experiments were performed as described previously. (Sirotnak et al., Cancer Chemother. […] Colorimetric dye (XTT or Alamar blue) was added for an addition period of time (XTT dye, 6 hours, Alamar blue, 24 hours). Each plate was then read on an automated plate reader at 590 nm. The percentage of inhibition was calculated as growth of cells exposed to drug divided by growth of controls (cells incubated with media only). […] Experiments were repeated as lest three times.

[9] = cited from earlier work; for weight loss at the MTD: nude mice
SKI-DLBCL-1 xenografts = test: TUNEL immunohistochemical staining for apoptosis in xenografts; type: in vivo, mice; settings: day 21; MTX 40 mg/kg or PDX 60 mg/kg on days 0, 3, 7 and 10
Method: Immunohistochemical staining for apoptosis as measured by terminal deoxynucleotide transferase-mediated nick end-labeling (TUNEL) was performed on SKI-DLBCL-1 xenografts from mice sacrificed at day 21 following initiation of antifolate therapy. Mice received four doses of saline, MTX (40 mg/kg) or PDX (60 mg/kg) on days 0, 3, 7 and 10.

Nc1ccn([C@@H]2O[C@H](CO)[C@@H](O)[C@@H]2O)c(=O)n1 [Ara-C, cytarabine]
tumor response (in words) [1]: modest growth delay compared to the control
tumor response (in words) (SKI-DLBCL-1 xenograft): sacrificed early due to excessive tumor growth

Nc1ccn([C@@H]2O[C@H](CO)[C@@H](O)C2(F)F)c(=O)n1 [Gem, 1-(2′,2′-difluoro-β-D-arabinofuranosyl) cytosine]
fraction of cells in S-phase (SKI-DLBCL cells): fewest

CN(Cc1cnc2nc(N)nc(N)c2n1)c1ccc(C(=O)N[C@@H](CCC(=O)O)C(=O)O)cc1 [MTX, methotrexate]
IC50 [2]: 0.032 ± 0.0022 µM
IC50 (Raji (Burkitt's)): 0.016 ± 0.0008 µM
IC50 [3]: 0.21 ± 0.04 µM
IC50 [4]: 0.035 ± 0.005 µM
tumor response (in words) ([5]; MTX 40 mg/kg): small reductions in growth an no regressions
tumor response (in words) ([6]; MTX 40 mg/kg): modest growth delay as compared to controls, there was no tumor regression
tumor response (in words) ([7]; MTX 40 mg/kg): small reductions in growth an no regressions
IC50 [8]: 0.048 ± 0.0025 µM
weight loss at the MTD [9]: less than 10%
tumor response (in words) [1]: modest growth delay compared to the control
tumor response (in words) (SKI-DLBCL-1 xenograft): sacrificed early due to excessive tumor growth
apoptotic cells in tumor tissue (TUNEL) (SKI-DLBCL-1 xenografts): little or no evidence of apoptotic cells

C#CCC(Cc1cnc2nc(N)nc(N)c2n1)c1ccc(C(=O)N[C@@H](CCC(=O)O)C(=O)O)cc1 (stereo partly shown) [PDX, 10-Propargyl-10-deazaminopterin]
Complete Regression (no/total) ([5]; MTX 40 mg/kg, PDX 60 mg/kg): 5/9
Tumor Regression (%) ([5]; PDX 60 mg/kg): 56%
decrease of tumor volumes from initial volumes ([5]; PDX 60 mg/kg): at least 50%
mice with tumor regressions ([5]; PDX 60 mg/kg, 5 of 9 mice): 57%
Complete Regression (no/total) ([6]; MTX 40 mg/kg, PDX 60 mg/kg): 8/9
Avg Tumor Diameter (mm ± SE) ([6]; MTX 40 mg/kg, PDX 60 mg/kg, at the nadir of tumor regression): 0.5 mm
mice with complete tumor regression ([6]; PDX 60 mg/kg, 8 of 9): 89%
Tumor Regression (%) ([6]; PDX 60 mg/kg, average tumor regression): 99%
Complete Regression (no/total) ([7]; MTX 40 mg/kg, PDX 60 mg/kg): 3/10
Tumor Regression (%) ([7]; PDX 60 mg/kg): 54%
decrease of tumor volumes from initial volumes ([7]; PDX 60 mg/kg): at least 50%
mice with tumor regressions / complete remissions ([7]; PDX 60 mg/kg, 3 of 10 mice): 30%
maximum tolerated dose (MTD) ([9]; intraperitoneal, twice weekly, four total doses): 60 mg/kg
weight loss at the MTD [9]: less than 10%
tumor regrowth, % of initial tumor volumes ([1]; PDX or Gem at 60 mg/kg, by day 44): 739%
apoptotic cells in tumor tissue (TUNEL) (SKI-DLBCL-1 xenografts): a high level of apoptotic cells
